Several values for one entry are separate records, joined by “and”; a condition that tells them apart may be missing. Equal entries are not always repeated.
Columns and labels:
eIF2Bα [1] = molecular target: T1, eIF2Bα (Homo sapiens, UniProt Q14232); assay: Differential scanning fluorimetry (Protein Thermal Shift), eIF2Bα Tm; type: binding; conditions: individual replicates Rep 1-4, control without metabolite about 64.1
T1 construct: made in house; host or cells: E. coli BL21(DE3)
T1 sequence (Q14232 1-305): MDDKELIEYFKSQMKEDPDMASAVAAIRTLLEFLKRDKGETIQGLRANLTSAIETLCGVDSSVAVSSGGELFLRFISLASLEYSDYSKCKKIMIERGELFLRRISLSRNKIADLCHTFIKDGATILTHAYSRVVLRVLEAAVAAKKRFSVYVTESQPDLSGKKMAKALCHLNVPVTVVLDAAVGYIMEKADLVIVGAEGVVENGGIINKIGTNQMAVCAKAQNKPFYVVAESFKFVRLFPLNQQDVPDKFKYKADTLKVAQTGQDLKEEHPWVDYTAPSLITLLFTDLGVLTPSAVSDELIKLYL
Method: The effect of metabolite binding on eIF2Bα Tm was assessed using the Protein Thermal Shift assay (Thermo Fisher), following manufacturer’s instructions. Briefly, reaction conditions for each 20 μL reaction were: 1.1 μg (1.5 μM) of eIF2Bα, 5 μl Thermal Shift buffer, 1X Thermal Shift dye, and metabolites in dose response. Reactions were run in 384-well format on a QuantStudio 6 Flex instrument (Thermo Fisher). The resulting melt curves were analyzed using Protein Thermal Shift Software, and eIF2Bα Tms for each condition were calculated by fitting to the Boltzmann function.

[2] = system: recombinant C. thermophilum eIF2Bα; set-up: method as in PMID 26384431; conditions: ITC; cited from earlier work
eIF2B = molecular target: T2, eIF2B (Homo sapiens, UniProt P49770+Q14232+Q9UI10); assay: eIF2B GEF activity assay, unbiased metabolite screen (Bodipy-FL-GDP release); type: biochemical; conditions: 10 μM metabolite
T2 construct: made in house; host or cells: eIF2Bα: E. coli BL21(DE3)
T2 sequence (P49770 whole entry, one chain of several): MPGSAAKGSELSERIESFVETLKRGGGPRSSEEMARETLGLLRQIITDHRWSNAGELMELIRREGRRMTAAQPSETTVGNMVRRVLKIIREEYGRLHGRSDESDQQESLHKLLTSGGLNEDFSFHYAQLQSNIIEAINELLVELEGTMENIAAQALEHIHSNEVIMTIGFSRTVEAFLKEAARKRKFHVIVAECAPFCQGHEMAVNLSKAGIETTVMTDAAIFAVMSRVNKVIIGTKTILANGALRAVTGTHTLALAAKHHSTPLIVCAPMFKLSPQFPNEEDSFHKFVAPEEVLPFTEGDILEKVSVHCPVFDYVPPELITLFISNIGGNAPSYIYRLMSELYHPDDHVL
T2 sequence (Q9UI10 whole entry, one chain of several): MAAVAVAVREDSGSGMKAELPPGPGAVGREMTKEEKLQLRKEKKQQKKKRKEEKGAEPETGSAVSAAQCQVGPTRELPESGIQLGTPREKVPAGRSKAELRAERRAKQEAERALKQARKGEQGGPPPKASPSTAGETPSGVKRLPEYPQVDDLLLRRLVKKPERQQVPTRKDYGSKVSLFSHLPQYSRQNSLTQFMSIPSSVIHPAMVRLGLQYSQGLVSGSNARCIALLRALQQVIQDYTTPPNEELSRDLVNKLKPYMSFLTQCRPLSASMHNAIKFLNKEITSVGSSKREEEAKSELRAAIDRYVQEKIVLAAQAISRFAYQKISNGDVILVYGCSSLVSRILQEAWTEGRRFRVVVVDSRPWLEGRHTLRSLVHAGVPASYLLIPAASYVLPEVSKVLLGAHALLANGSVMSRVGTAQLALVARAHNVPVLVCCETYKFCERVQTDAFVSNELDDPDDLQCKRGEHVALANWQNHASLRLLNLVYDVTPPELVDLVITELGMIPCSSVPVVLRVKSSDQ
T2 sequence (Q9NR50 whole entry partner, one chain of several): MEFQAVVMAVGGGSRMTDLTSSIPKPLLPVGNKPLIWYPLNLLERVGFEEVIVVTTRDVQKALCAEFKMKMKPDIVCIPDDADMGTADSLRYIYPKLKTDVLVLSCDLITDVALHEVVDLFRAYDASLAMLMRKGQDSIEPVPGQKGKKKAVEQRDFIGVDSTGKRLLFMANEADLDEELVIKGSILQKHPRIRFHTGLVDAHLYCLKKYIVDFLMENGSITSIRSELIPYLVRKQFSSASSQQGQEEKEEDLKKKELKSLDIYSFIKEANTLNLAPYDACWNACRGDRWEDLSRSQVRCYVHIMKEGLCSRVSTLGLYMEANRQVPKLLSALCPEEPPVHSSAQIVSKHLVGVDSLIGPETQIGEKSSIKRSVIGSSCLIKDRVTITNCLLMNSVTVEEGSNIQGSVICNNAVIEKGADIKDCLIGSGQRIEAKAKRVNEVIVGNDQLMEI
T2 sequence (Q13144 whole entry partner, one chain of several): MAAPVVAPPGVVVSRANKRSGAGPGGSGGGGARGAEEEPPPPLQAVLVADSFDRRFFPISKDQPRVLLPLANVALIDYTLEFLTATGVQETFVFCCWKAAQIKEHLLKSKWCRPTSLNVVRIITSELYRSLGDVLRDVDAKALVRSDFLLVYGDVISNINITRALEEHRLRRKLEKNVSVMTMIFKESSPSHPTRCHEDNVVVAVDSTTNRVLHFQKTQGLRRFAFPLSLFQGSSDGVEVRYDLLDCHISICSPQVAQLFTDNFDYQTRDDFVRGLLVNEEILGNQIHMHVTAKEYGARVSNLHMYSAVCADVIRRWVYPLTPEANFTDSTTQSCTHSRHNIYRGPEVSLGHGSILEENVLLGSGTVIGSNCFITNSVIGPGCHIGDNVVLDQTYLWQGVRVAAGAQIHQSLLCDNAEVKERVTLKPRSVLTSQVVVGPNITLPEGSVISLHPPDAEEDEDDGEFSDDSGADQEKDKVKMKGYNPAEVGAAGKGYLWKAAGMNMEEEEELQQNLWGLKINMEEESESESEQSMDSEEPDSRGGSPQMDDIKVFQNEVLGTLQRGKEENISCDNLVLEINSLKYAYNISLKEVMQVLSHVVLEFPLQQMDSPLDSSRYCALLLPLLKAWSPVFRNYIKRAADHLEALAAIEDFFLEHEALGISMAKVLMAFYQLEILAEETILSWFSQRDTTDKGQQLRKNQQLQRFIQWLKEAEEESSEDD
Method: Bodipy-FL-GDP-loaded eIF2 was used as a substrate for recombinant eIF2B. The assay was performed in 384-well plates. Reactions were read on a SpectraMax i3x plate reader (Molecular Devices) using the instrument’s Softmax Pro software with the following parameters: plate temperature = 25 °C; excitation wavelength = 485 nm (15 nm width); emission wavelength = 535 nm (25 nm width); read duration = 30 min at 45 s intervals. Data were analyzed in Prism. GDP release half-lives were calculated by fitting single-exponential decay curves.
For unbiased screening, MIDAS metabolite libraries at 10 mM stock concentration were dispensed into wells of the assay plate using an Echo Acoustic Liquid Handler (Labcyte). […] A single well was run for each metabolite. […] For targeted experiments with HEK293T lysates, the following conditions were used: 50 nM Bodipy-FL-GDP-loaded eIF2, 0.1 mM GDP, 1 mg/ml BSA, 0.1 or 0.3 mg/ml lysates.

eIF2Bα [3] = molecular target: T1, eIF2Bα; assay: MIDAS (mass spectrometry integrated with equilibrium dialysis) metabolite binding screen; conditions: MIDAS screen, sheet eIF2Ba; metabolites screened in pools 1-4; p-value and q-value given
Procedure, shortened: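 Hits called at Storey q < 0.1 on z-scores of PCA-corrected log2 fold change between protein and metabolite chambers, quantified by FIA-MS in triplicate.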

effect on eIF2B GEF activity in the screen (eIF2B)	log2(corrected fold change) (eIF2Bα [3])	Structure (SMILES)	Tm of eIF2Bα (eIF2Bα [1]; 0.33 mM metabolite)	Tm of eIF2Bα (eIF2Bα [1]; 1 mM metabolite)	Tm of eIF2Bα (eIF2Bα [1]; 3.3 mM metabolite)	Tm of eIF2Bα (eIF2Bα [1]; 10 mM metabolite)	binding to C. thermophilum eIF2Bα [2]
a hit in this functional assay screen	0.1066	Nc1ncnc2c1ncn2[C@@H]1O[C@H](COP(=O)(O)O)[C@@H](O)[C@H]1O [AMP, Adenosine monophosphate]	65.271 °C and 65.2418 °C and 65.0115 °C and 64.5232 °C	66.0123 °C and 65.9255 °C and 65.7398 °C and 64.0959 °C	65.3392 °C and 65.2463 °C and 65.3342 °C and 64.7156 °C	66.4657 °C and 66.4512 °C and 66.2897 °C and 64.6159 °C	binding
–	–	Nc1nc2c(ncn2[C@@H]2O[C@H](COP(=O)(O)O)[C@@H](O)[C@H]2O)c(=O)[nH]1 [GMP]	65.0444 °C and 64.6931 °C and 64.6421 °C and 63.969 °C	65.9427 °C and 65.8956 °C and 65.7456 °C and 64.3903 °C	65.9427 °C and 65.7951 °C and 65.7602 °C and 64.8164 °C	66.5064 °C and 66.3635 °C and 66.1504 °C and 64.9333 °C	binding
